Values quoted from earlier work as cited in article PMC12009570 (International Journal of Nanomedicine, 2025).

Assays:
[1] = not given; remark: listed apart in the source

## Cl.O=C1[C@@H]2[C@H]3CC[C@H](C3)[C@@H]2C(=O)N1C[C@@H]1CCCC[C@H]1CN1CCN(c2nsc3ccccc23)CC1 [LSD, Lurasidone hydrochloride]
Conventional tablets, oral
  oral bioavailability: 9–19%
Food effect
  AUC, times higher than in the fasted state: 2 times
  Cmax, times higher than in the fasted state: 3 times
[1]
  pH at which most soluble: 3.8
